Earlier results, collected in US20240139123A1, “COMPOSITIONS AND METHODS FOR IMPROVING BRAIN FUNCTION” (Health Via Modern Nutrition Inc., priority 2021, published 2024).

Key:
[1] = rats, diet supplemented as 30% of calories
[2] = animal models
[3] = tested on: NF-κB activation; details: in vitro
[4] = Schizophrenia-like rat model
[5] = animal and in vitro studies
[6] = patient with Alzheimer's disease dementia, 20-month oral administration

For `C[C@@H](O)CCOC(=O)C[C@@H](C)O` [(R)-3-hydroxyburyl (R)-3-hydroxybutyrate], the “cognitive and physical performance” value [1] is given as “improved cognitive and physical performance”.

For `C=C(C)[C@@H]1CCC(C)=C[C@H]1c1c(O)cc(CCCCC)cc1O` [CBD, cannabidiol], the “anti-anxiety and antidepressant effects” value [2] is listed as “exhibited an anti-anxiety and antidepressant effects”, the NF-κB activation [3] is listed as “inhibits” and the “reactive oxygen species (ROS) production by mitochondria” value [3] is listed as “inhibits”. For the same compound, the “cognitive impairment and cortical transcriptional changes” value [4] was “improve cognitive impairment and reverse cortical transcriptional changes” and the anti-inflammatory properties [5] was “strong anti-inflammatory properties”.

For `C[C@@H](O)CCOC(=O)C[C@@H](C)O` [ketone monoester], the “mood, affect, self-care, cognitive and daily activity performance” value [6] is listed as “improved markedly in mood, affect, self-care, and cognitive and daily activity performance”.
